Key:
[1] = test system: rats; conditions: cited from earlier work
[2] = test system: male and female rats; assay: von Frey mechanical withdrawal threshold after oxaliplatin CIPN induction; assay type: in vivo, rat; conditions: after single i.p. oxaliplatin 6 mg/kg, 3 days; baseline 72.9±2.7 grams
Protocol: Chronic pain models: Chemotherapy induced neuropathy was induced in rats with oxaliplatin after i.t catheter placement recovery with a single i.p. dose of oxaliplatin 6 mg/kg. The animals were allowed to recover for 3 days and then were assessed in the open field assay to ensure motor function and with a von Frey assay to assess allodynia to verify their pain state. The von Frey assay with an electronic aesthesiometer quantified the average baseline for a group of male and female rats to be 72.9±2.7 grams for the mechanical withdrawal threshold after cannulation but before CIPN model induction which fell to 27.9±2.7 grams indicating allodynia. On the day of treatment rats were assessed for baseline measures and then treated and assayed for […] responses.

Structure (SMILES) | motor effect after intrathecal administration ([1]; 2.4 µg i.t., ref Schmalhofer et al., 2008) | maximum tolerated dose in rats ([1]; in 10 µL, intrathecal, ref Flinspach et al., 2017) [µg] | mechanical withdrawal threshold (von Frey, electronic aesthesiometer) [2] [grams]
CSCC[C@@H]1NC(=O)CNC(=O)[C@H](CCC(=O)O)NC(=O)[C@@H]2CSSC[C@H](NC(=O)[C@@H](N)Cc3ccc(O)cc3)C(=O)N[C@@H](CCC(N)=O)C(=O)N[C@@H](CCCCN)C(=O)N[C@@H](Cc3c[nH]c4ccccc34)C(=O)N[C@@H](CCSC)C(=O)N[C@@H](Cc3c[nH]c4ccccc34)C(=O)N[C@@H]([C@@H](C)O)C(=O)N[C@H]3CSSC[C@H](NC(=O)[C@H](C(C)C)NC1=O)C(=O)N[C@@H](CCCNC(=N)N)C(=O)N[C@@H](CC(C)C)C(=O)N[C@@H](Cc1c[nH]c4ccccc14)C(=O)N[C@H](C(=O)N[C@@H](CCCCN)C(=O)N[C@@H](CCCCN)C(=O)N[C@@H](CCCCN)C(=O)N[C@@H](CC(C)C)C(=O)N[C@@H](Cc1c[nH]c4ccccc14)C(=O)O)CSSC[C@H](NC(=O)[C@H](CCCCN)NC(=O)[C@H](CCCNC(=N)N)NC(=O)[C@H](CCC(=O)O)NC(=O)[C@H](CO)NC(=O)[C@H](CC(=O)O)NC3=O)C(=O)N2 [WT ProTx-II] | laming effect | 2 | 
O=C1[O][Pt]2([NH][C@@H]3CCCC[C@H]3[NH]2)[O]C1=O [oxaliplatin] |  |  | 27.9±2.7

Reference: publication PMC9831606, “Computational design of peptides to target NaV1.7 channel with high potency and selectivity for the treatment of pain” (eLife, 2022)
